The nature of data set [1]: In vivo near-infrared imaging of the sentinel lymph node after subcutaneous footpad injection. Also noted: species or system BALB/c nude mice. The following applies: 0.01% solution, 50 μl s.c. into left forefoot, 30 minutes after injection. The procedure: In animal tests, 6-week-old female BALB/c nude mice (SLC Inc., Japan) with no pathogens were used. All the tests were performed under the approval of the Laboratory Animal Center, Chungnam National University.
For data acquisition and analysis, images (see FIG. 3) were obtained using a home-made NIR optical imaging system (see FIG. 2) manufactured by the present inventors. Herein, the near-infrared optical imaging system comprises a light source consisting of a 500 mW fiber-type laser, an emission filter, a lens system equipped with a microzoom, and a near-infrared detector (NIR CCD detector) (see FIG. 2). In the near infrared imaging system, the intensity of fluorescence appears as a pseudo color, and more red fluorescence indicates stronger intensity.
Before imaging, mice were anesthetized by intraperitoneally injecting a 2.5% avertin (2,2,2-tribromoethanol-tert-amyl alcohol, Sigma) solution at a dose of 0.01 Ml/g weight. 50 μl of each of an ICG solution (0.01%), ICG/γ-PGA (50 kDa) complex solutions (0.01%, 0.1% and 1%) and ICG/γ-PGA (7000 kDa) complex solutions (0.01%, 0.1% and 1%) was injected into the left forefoot of each nude mouse (footpad, subcutaneous injection), and after 5 min, 20 min and 30 min, the fluorescence of the sentinel lymph node was measured. […]

A short description of data set [2]: Light stability: near-infrared fluorescence intensity of solutions kept at room temperature for 3 days. It is filed as physicochemical. The following applies: 50 μl of solution (0.01% ICG) in tube, after 3 days. The procedure: 50 μl of the prepared ICG/γ-PGA complex solution was dispensed into a 1.5 Ml tube, and then the near-infrared fluorescence spectrum thereof was measured using a fluorescence spectrophotometer (FluoroMate FS-2) (see FIG. 1).

Regarding `CC1(C)C(/C=C/C=C/C=C/C=C2\N(CCCCS(=O)(=O)O)c3ccc4ccccc4c3C2(C)C)=[N+](CCCCS(=O)(=O)[O-])c2ccc3ccccc3c21` [ICG, Indocyanine green], in data set [1], the “intensity of fluorescence emitted from the sentinel lymph node” value is “very weak”; the “retention in the sentinel lymph node / migration to other lymph nodes” value is “did not remain in the sentinel lymph node and migrated to other lymph node”. Also, in data set [2], the “fluorescence intensity (light stability)” value is listed as “rapidly decreased”.
